Data from the NIST ThermoML archive (doi:10.1021/je060271a).

Conditions: 283.15 K, Liquid, Vibrating tube method

CCCCC(=O)OCC(COC(=O)CCCC)(COC(=O)CCCC)COC(=O)CCCC [pentaerythritol tetrapentanoate]
Conditions	mass density [kg/m3]
17085 kPa	1036.8
17119 kPa	1037
17147 kPa	1036.9
17175 kPa	1036.9
17208 kPa	1036.9
17236 kPa	1036.9
17270 kPa	1036.9
17299 kPa	1037
17327 kPa	1037
17355 kPa	1037.1
17390 kPa	1037
17419 kPa	1037.1
17449 kPa	1037.2
17478 kPa	1037
17514 kPa	1037
17542 kPa	1037.2
17572 kPa	1037.1
17607 kPa	1037.1
17637 kPa	1037.4
17666 kPa	1037.2
17702 kPa	1037.3
17732 kPa	1037.2
17762 kPa	1037.3
17798 kPa	1037.3
17829 kPa	1037.1
17860 kPa	1037.4
17890 kPa	1037.4
17927 kPa	1037.2
17958 kPa	1037.4
17995 kPa	1037.4
18026 kPa	1037.4
18058 kPa	1037.4
18097 kPa	1037.4
18130 kPa	1037.4
18164 kPa	1037.4
18197 kPa	1037.5
18237 kPa	1037.5
18262 kPa	1037.5
18283 kPa	1037.6
18309 kPa	1037.6
18330 kPa	1037.6
18356 kPa	1037.5
18377 kPa	1037.6
18399 kPa	1037.6
18421 kPa	1037.6
18446 kPa	1037.8
18468 kPa	1037.6
18490 kPa	1037.7
18517 kPa	1037.7
18539 kPa	1037.6
18561 kPa	1037.7
18588 kPa	1037.6
18610 kPa	1037.8
18631 kPa	1037.7
18657 kPa	1037.6
18680 kPa	1037.8
18702 kPa	1037.9
18728 kPa	1037.6
18750 kPa	1037.7
18778 kPa	1037.8
18800 kPa	1037.8
18823 kPa	1037.9
18845 kPa	1037.8
18874 kPa	1037.8
18896 kPa	1037.8
18919 kPa	1037.9
18947 kPa	1037.9
18970 kPa	1037.8
18993 kPa	1037.9
19021 kPa	1038
19044 kPa	1037.9
19067 kPa	1037.8
19094 kPa	1037.9
19118 kPa	1038
19142 kPa	1038.1
19166 kPa	1038
19191 kPa	1038
19219 kPa	1038
19243 kPa	1038
19266 kPa	1038
19295 kPa	1038.2
19319 kPa	1038
19343 kPa	1038
19372 kPa	1038.2
19397 kPa	1038.1
19420 kPa	1038.2
19450 kPa	1038.1
19475 kPa	1038.1
19501 kPa	1038.1
19525 kPa	1038.2
19550 kPa	1038.2
19579 kPa	1038.2
19603 kPa	1038.3
19633 kPa	1038.3
19658 kPa	1038.2
19682 kPa	1038.1
19707 kPa	1038.3
19738 kPa	1038.4
19763 kPa	1038.4
19788 kPa	1038.3
19818 kPa	1038.4
19844 kPa	1038.3
19874 kPa	1038.4
19900 kPa	1038.3
19925 kPa	1038.5
19951 kPa	1038.5
19982 kPa	1038.5
20007 kPa	1038.5
20033 kPa	1038.5
20064 kPa	1038.4
20090 kPa	1038.5
20121 kPa	1038.5
20147 kPa	1038.5
20174 kPa	1038.5
20200 kPa	1038.6
20232 kPa	1038.5
20259 kPa	1038.7
20286 kPa	1038.5
20318 kPa	1038.6
20344 kPa	1038.6
20376 kPa	1038.6
20403 kPa	1038.6
20430 kPa	1038.8
20462 kPa	1038.6
20490 kPa	1038.7
20517 kPa	1038.7
20550 kPa	1038.8
20578 kPa	1038.8
20607 kPa	1038.8
20634 kPa	1038.9
20667 kPa	1038.8
20695 kPa	1038.8
20723 kPa	1038.8
20756 kPa	1038.9
20784 kPa	1038.9
20812 kPa	1038.9
20846 kPa	1038.9
20875 kPa	1039
20904 kPa	1038.9
20938 kPa	1038.9
20966 kPa	1038.9
20995 kPa	1039
21029 kPa	1039
21058 kPa	1039.1
21086 kPa	1039.2
21116 kPa	1039
21151 kPa	1039
21180 kPa	1039.1
21215 kPa	1039.1
21244 kPa	1039.2
21274 kPa	1039.1
21303 kPa	1039.1
21340 kPa	1039.1
21369 kPa	1039.2
21399 kPa	1039.1
21435 kPa	1039.2
21464 kPa	1039.2
21495 kPa	1039.3
21531 kPa	1039.4
21561 kPa	1039.3
21592 kPa	1039.3
21628 kPa	1039.2
21658 kPa	1039.2
21689 kPa	1039.3
21727 kPa	1039.4
21760 kPa	1039.4
21791 kPa	1039.4
21822 kPa	1039.5
21860 kPa	1039.5
21891 kPa	1039.5
21922 kPa	1039.5
21954 kPa	1039.5
21992 kPa	1039.5
22024 kPa	1039.5
22061 kPa	1039.6
22093 kPa	1039.7
22125 kPa	1039.5
22164 kPa	1039.5
22192 kPa	1039.6
22231 kPa	1039.6
22263 kPa	1039.6
22302 kPa	1039.7
22335 kPa	1039.7
22367 kPa	1039.8
22406 kPa	1039.7
22439 kPa	1039.8
22472 kPa	1039.7
22512 kPa	1039.8
22545 kPa	1039.8
22579 kPa	1039.8
22619 kPa	1040
22654 kPa	1039.9
22687 kPa	1039.9
22721 kPa	1039.9
22762 kPa	1039.8
22796 kPa	1040
22830 kPa	1039.9
22871 kPa	1040
22905 kPa	1040
22947 kPa	1039.9
22982 kPa	1040.1
23016 kPa	1039.9
23059 kPa	1040
23094 kPa	1040.1
23129 kPa	1040.1
23164 kPa	1040.2
23208 kPa	1040.1
23243 kPa	1040.3
23285 kPa	1040.3
23321 kPa	1040.3
23357 kPa	1040.2
23394 kPa	1040.2
23437 kPa	1040.3
23473 kPa	1040.2
23516 kPa	1040.4
23553 kPa	1040.3
23590 kPa	1040.4
23635 kPa	1040.3
23672 kPa	1040.4
23709 kPa	1040.5
23746 kPa	1040.5
23790 kPa	1040.5
23827 kPa	1040.5
23872 kPa	1040.5
23909 kPa	1040.5
23947 kPa	1040.5
24000 kPa	1040.6
24048 kPa	1040.5
24099 kPa	1040.6
24162 kPa	1040.7
24208 kPa	1040.8
24238 kPa	1040.7
24266 kPa	1040.7
24299 kPa	1040.8
24327 kPa	1040.8
24360 kPa	1040.9
24388 kPa	1040.7
24416 kPa	1040.9
24444 kPa	1040.9
24478 kPa	1040.9
24506 kPa	1040.9
24535 kPa	1041
24569 kPa	1040.9
24598 kPa	1041
24626 kPa	1040.9
24660 kPa	1040.9
24689 kPa	1040.9
24718 kPa	1041
24746 kPa	1041
24781 kPa	1041.2
24810 kPa	1041
24845 kPa	1041.1
24874 kPa	1041.2
24903 kPa	1041.1
24934 kPa	1041.1
24964 kPa	1041.1
24999 kPa	1041
25028 kPa	1041.2
25058 kPa	1041.2
25088 kPa	1041.2
25124 kPa	1041.1
25154 kPa	1041.2
25183 kPa	1041.2
25219 kPa	1041.3
25249 kPa	1041.3
25279 kPa	1041.3
25347 kPa	1041.3
25380 kPa	1041.4
25410 kPa	1041.3
25441 kPa	1041.5
25477 kPa	1041.3
25508 kPa	1041.3
25544 kPa	1041.4
25575 kPa	1041.5
25606 kPa	1041.5
25642 kPa	1041.6
25673 kPa	1041.4
25705 kPa	1041.4
25742 kPa	1041.3
25775 kPa	1041.5
25806 kPa	1041.6
25837 kPa	1041.5
25875 kPa	1041.6
25907 kPa	1041.6
25939 kPa	1041.7
25977 kPa	1041.6
26009 kPa	1041.6
26041 kPa	1041.6
26079 kPa	1041.7
26111 kPa	1041.7
26143 kPa	1041.7
26176 kPa	1041.8
26216 kPa	1041.7
26249 kPa	1041.8
26282 kPa	1041.8
26315 kPa	1041.8
26354 kPa	1041.8
26388 kPa	1041.9
26421 kPa	1041.8
26461 kPa	1041.9
26494 kPa	1042
26528 kPa	1041.8
26567 kPa	1042
26601 kPa	1041.9
26635 kPa	1041.9
26669 kPa	1042
26710 kPa	1042
26744 kPa	1042.1
26778 kPa	1042.1
26818 kPa	1042
26853 kPa	1042.1
26893 kPa	1042.1
26928 kPa	1042.1
26963 kPa	1042.2
26997 kPa	1042.1
27039 kPa	1042.2
27074 kPa	1042.2
27110 kPa	1042.3
27152 kPa	1042.2
27187 kPa	1042.3
